Assay [1] deals with T1, CTP synthetase (CtpS) (Escherichia coli, UniProt P0A7E5).
T1 construct: gene pyrG; full-length
The assay is described as follows: purified enzyme turnover; ATP with UTP depolymerizes and reactivates CtpS (light scattering and activity). The format is biochemical.

Assay [2] has as its target T1, CTP synthetase (CtpS). The assay is described as follows: cryo-EM difference density in the CtpS filament ([…] Å). In kind it is binding.
The target in assay [3] is T1, CTP synthetase (CtpS). Put plainly: CTP production by purified enzyme initiated by glutamine. The format is biochemical.
For assay [4], the target named is T1, CTP synthetase (CtpS). The assay is described as follows: purified enzyme turnover to CTP; UTP with ATP depolymerizes and reactivates CtpS (light scattering and activity). In kind it is biochemical.
Assay [5] concerns the target T1, CTP synthetase (CtpS). The assay is described as follows: CTP production (transmittance at […] nm) and light scattering of purified CtpS with DON. The format is biochemical.
Assay [6] concerns the target T2, CTP synthetase (CtpS E277R) (Escherichia coli, UniProt P0A7E5, E277R).
T2 construct: gene pyrG; full-length, 6XHis tag not cleaved
The assay is described as follows: CTP inhibition of CTP synthesis by purified enzyme (absorbance at […] nm), […] enzyme. The format is biochemical.

Structures are written as SMILES.

T1 sequence (P0A7E5 2-545): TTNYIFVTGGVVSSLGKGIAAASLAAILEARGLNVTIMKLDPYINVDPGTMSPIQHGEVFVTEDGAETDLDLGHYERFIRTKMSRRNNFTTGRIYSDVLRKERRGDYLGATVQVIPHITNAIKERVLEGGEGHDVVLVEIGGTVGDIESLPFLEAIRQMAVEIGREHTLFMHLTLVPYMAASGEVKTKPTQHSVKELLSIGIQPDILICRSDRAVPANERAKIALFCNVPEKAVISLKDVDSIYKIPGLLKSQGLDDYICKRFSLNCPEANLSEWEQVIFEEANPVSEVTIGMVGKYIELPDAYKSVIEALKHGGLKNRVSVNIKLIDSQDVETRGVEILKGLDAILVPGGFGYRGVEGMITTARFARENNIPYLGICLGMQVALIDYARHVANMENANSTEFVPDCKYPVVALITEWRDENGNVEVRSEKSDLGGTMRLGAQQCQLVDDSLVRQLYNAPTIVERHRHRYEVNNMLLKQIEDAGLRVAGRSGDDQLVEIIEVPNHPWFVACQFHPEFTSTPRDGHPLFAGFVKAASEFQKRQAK
T2 sequence (P0A7E5 2-545 E277R): as the sequence (P0A7E5 2-545) above, with E276R counted along it

Consider `Nc1ncnc2c1ncn2[C@@H]1O[C@H](COP(=O)(O)OP(=O)(O)OP(=O)(O)O)[C@@H](O)[C@H]1O` [ATP], for which the “purified enzyme turnover; ATP with UTP depolymerizes and reactivates CtpS (light)” value in assay [1] is “Addition of ATP and UTP depolymerized the sample”.

Turning to `Nc1ncnc2c1ncn2[C@@H]1O[C@H](COP(=O)(O)OP(=O)(O)O)[C@@H](O)[C@H]1O` [ADP], the “cryo-EM difference density in the CtpS filament (8.4 Å)” value in assay [2] was “Similarly strong density is found in the difference map in the positions of bound ADP”.

As for `NC(=O)CC[C@H](N)C(=O)O` [glutamine], the “CTP production by purified enzyme initiated by glutamine” value in assay [3] is listed as “CTP production was then initiated by the addition of glutamine to form a complete activity buffer”.

For `O=c1ccn([C@@H]2O[C@H](CO[P@@](=O)(O)O[P@@](=O)(O)OP(=O)(O)O)[C@@H](O)[C@H]2O)c(=O)[nH]1` [UTP], in assay [4], the “purified enzyme turnover to CTP; UTP with ATP depolymerizes and reactivates CtpS” value is “Upon addition of these substrate nucleotides, we observed a sharp decrease in light scattering”.

For the compound `[N-]=[N+]=CC(=O)CC[C@H](N)C(=O)O` [6-Diazo-5-oxo-L-norleucine], the “CTP production (transmittance at 291 nm) and light scattering of purified CtpS w” value in assay [5] was “When added to activity buffer, DON abolishes both CTP production and CtpS polymerization”.

Compound `Nc1ccn([C@@H]2O[C@H](COP(=O)(O)OP(=O)(O)OP(=O)(O)O)[C@@H](O)[C@H]2O)c(=O)n1` [CTP] showed a concentration for half-maximal inhibition (IC50) in assay [6] of 833 µM.

Values taken from PMC4126345, “Large-scale filament formation inhibits the activity of CTP synthetase” (eLife, 2014).
